According to ChEMBL document CHEMBL5120881, “Silencing Tautomerization to Isolate Unstable Physalins from Physalis minima” (J Nat Prod, 2022):

What was measured:
[1] = Cytotoxicity against human L02 cells assessed as cell viability at 10 uM incubated for 48 hrs by CCK8 assay; assay type: toxicity, cell-based; settings: read-out: Activity
SGC-7901 = test: Antiproliferative activity against human SGC-7901 cells assessed as reduction in cell viability incubated for 48 hrs by CCK8 assay; assay type: functional, cell-based; settings: SGC-7901, 48 h
MCF7 = test: Antiproliferative activity against human MCF7 cells assessed as reduction in cell viability incubated for 48 hrs by CCK8 assay; assay type: functional, cell-based; settings: MCF7, 48 h
HepG2 = test: Antiproliferative activity against human HepG2 cells assessed as reduction in cell viability incubated for 48 hrs by CCK8 assay; assay type: functional, cell-based; settings: HepG2, 48 h
[2] = Cytotoxicity against mouse RAW264.7 cells assessed as cell viability at 10 uM incubated for 48 hrs by CCK8 assay; assay type: toxicity, cell-based; settings: read-out: Activity
A549 = test: Antiproliferative activity against human A549 cells assessed as reduction in cell viability incubated for 48 hrs by CCK8 assay; assay type: functional, cell-based; settings: A549, 48 h
RAW264.7 = test: Antiinflammatory activity in mouse RAW264.7 assessed as inhibition of LPS-stimulated NO production pretreated with LPS followed by compund addition by Griess reagent based microplate reader assay; assay type: functional, cell-based

Row | IC50 (RAW264.7; Mus musculus, RAW264.7) [µM] | SMILES | viability at 48 h, 10 µM [1] [%] | IC50 (SGC-7901) [µM] | IC50 (MCF7) [µM] | IC50 (HepG2) [µM] | viability at 48 h, 10 µM [2] [%] | IC50 (A549) [µM] | inhibition (INH) (RAW264.7) [%]
1 | – | C=C1C(=O)O[C@@H]2C[C@@]1(C)[C@@H]1C(=O)[C@@]3(O)O[C@]14[C@@]2(C)OC(=O)[C@@]4(O)CC[C@H]1[C@H]3C[C@@H](O)[C@@]2(O)CC=CC(=O)[C@]12C | 97.5 | 12.4 | 7.3 | 9.8 | 93.5 | 5.4 | <50
2 | 25.6 | C=C1C(=O)O[C@@H]2C[C@@]1(C)[C@@H]1C(=O)[C@@]3(O)O[C@]14[C@@]2(C)OC(=O)[C@@]4(O)CC[C@H]1[C@H]3C[C@@H](O)[C@@]2(OC)CC=CC(=O)[C@]12C | 98.1 | 7.8 | 10.6 | 14 | 94.2 | 11.4 | –
3 | – | C[C@@]12C[C@H]3OC(=O)[C@@H]1CO[C@@]14O[C@@]5([C@H]2C1=O)[C@@]3(C)OC(=O)[C@@]5(O)CC[C@H]1[C@H]4C[C@@H](O)[C@@]2(Cl)CC=CC(=O)[C@]12C | 95.3 | 12.7 | 12.5 | 24.7 | 98.3 | 21.7 | <50
4 | – | C[C@]12C(=O)C=CCC1=CC[C@@H]1[C@@H]2CC[C@]2(O)C(=O)O[C@@]3(C)[C@H]4C[C@]5(C)[C@@H](CO[C@@]16O[C@@]32[C@H]5C6=O)C(=O)O4 [PHYSALIN B] | 97.8 | 12.1 | 11.2 | 11.7 | 95.8 | 11.9 | <50
5 | – | C=C1C(=O)O[C@@H]2C[C@@]1(C)[C@@H]1C(=O)[C@@]3(O)O[C@]14[C@@]2(C)OC(=O)[C@@]4(O)CC[C@H]1[C@H]3C[C@@H](O)C2=CC=CC(=O)[C@@]21C | 95.2 | 9.8 | 12.5 | 8.3 | 92.3 | 7 | <50
6 | – | C[C@]12C(=O)CC=CC1=CC[C@@H]1[C@@H]2CC[C@]2(O)C(=O)O[C@@]3(C)[C@H]4C[C@]5(C)[C@@H](CO[C@]16O[C@@]32[C@H]5C6=O)C(=O)O4 | 92.5 | 8.9 | 2.5 | 9.8 | 94.2 | 4.3 | <50
7 | – | C=C1C(=O)O[C@@H]2C[C@@]1(C)[C@@H]1C(=O)[C@@]3(O)O[C@]14[C@@]2(C)OC(=O)[C@@]4(O)CC[C@H]1[C@H]3CC=C2CC=CC(=O)[C@@]21C | 94.2 | 2.8 | 7.6 | 13.2 | 90.7 | 8.9 | <50
8 | – | C=C1C(=O)O[C@@H]2C[C@@]1(C)[C@@H]1C(=O)[C@@]3(O)O[C@]14[C@@]2(C)OC(=O)[C@@]4(O)CC[C@H]1[C@H]3C[C@H]2O[C@]23CC=CC(=O)[C@]13C | 90.2 | 0.3 | 0.9 | 1.3 | 85.2 | 0.2 | <50
9 | – | C=C1C(=O)O[C@@H]2C[C@@]1(C)[C@@H]1C(=O)[C@@]3(O)O[C@]14[C@@]2(C)OC(=O)[C@@]4(O)CC[C@H]1[C@H]3CC=C2C=CCC(=O)[C@@]21C | 95.4 | 9.1 | 1.2 | 9.4 | 91.4 | 4.2 | <50
